In patent US20080233206A1, “COMPOSITIONS AND METHODS FOR ANTI-INFLAMMATORY TREATMENTS” (Molecular Research Center, Inc., priority 2007, published 2008):
Like-named read-outs stand apart in the source and are kept apart here.

How the values were obtained:
[1] = test system: various cell types; conditions: in vitro and in vivo; cited from earlier work
[2] = test system: human intestine cell line CCL-221; experiment: Growth of human intestine cell line CCL-221; assay type: cell-based; conditions: 5 μg/ml
Source text: (§1) The intestine epithelial cells have a high proliferation rate. Thus, the anti-proliferating effect of semisynthetic or synthetic tetracyclines may lead to potential side effects, especially during a long-term therapy.

[3] = test system: human lymphoma Molt-4 cells; experiment: Growth of human lymphoma Molt-4 cells; assay type: cell-based; conditions: 5 μg/ml, read-out: inhibition of cell growth
Source text: as §1

[4] = cited from earlier work
[5] = prolonged treatment (for acne); cited from earlier work
[6] = human subjects, concurrently with a protein diet (Welling, 1977)

NC(=O)C1=C(O)C[C@@H]2C[C@@H]3Cc4cccc(O)c4C(=O)C3=C(O)[C@]2(O)C1=O [CMT-3]
effect on cell proliferation [1]: inhibit proliferation

C[C@H]1c2cccc(O)c2C(=O)C2=C(O)[C@]3(O)C(=O)C(C(N)=O)=C(O)[C@@H](N(C)C)[C@@H]3[C@@H](O)[C@@H]21 [doxycycline]
inhibition at 5 µg/mL [2]: ~60%
inhibition at 5 µg/mL [3]: ~80%
serum level ([4]; fasting subjects (Depperman, 1989)): 2.7 µg/mL
serum level [4, 6]: 2.6 µg/mL
serum level ([4]; with antacid (aluminum-magnesium hydroxide) (Depperman, 1989)): 0.45 µg/mL

CN(C)c1ccc(O)c2c1C[C@H]1C[C@H]3[C@H](N(C)C)C(O)=C(C(N)=O)C(=O)[C@@]3(O)C(O)=C1C2=O [minocycline]
induced syndrome [5]: drug-induced lupus

CN(C)[C@@H]1C(O)=C(C(N)=O)C(=O)[C@@]2(O)C(O)=C3C(=O)c4c(O)cccc4[C@@](C)(O)[C@H]3C[C@@H]12 [tetracycline, 4-(Dimethylamino)-1,4,4α,5,5α,6,11,12α-octahydro-3,6,10,12,12α-pentahydroxy-6-methyl-1,1′-dioxo-2-naphtacenecarobxamide]
inhibition at 5 µg/mL [3]: ~20%
serum level [4, 6]: 1.8 µg/mL
